Measurements published in patent US20250194663A1, “ORAL POUCH PRODUCT CONTAINING AMINO ACID OR SALT THEREOF” (Japan Tobacco Inc., priority 2022, published 2025).
Blank lines part the entries; values can stand above or below the molecule they belong to.

What was measured:
[1] = cited from earlier work; for pI: amino acid isoelectric point; for pKa (—COOH group) / pKa (—NH3 group): amino acid
[2] = Spectrocolorimeter (CM-5) measurement of samples before and after adsorption and desorption measurement; format: physicochemical
Procedure: Changes in the samples between before and after the measurement of the adsorption and desorption isotherms were measured using Konica Minolta, Inc.'s spectrocolorimeter (CM-5). The measurement conditions were reflection measurement and the SCI method, and the measurements were taken with the observation window of a 3-mm φ target mask covered with the glass container after the adsorption and desorption measurement. A blank tube, with no sample placed in it, was also subjected to the measurement, through which a measurement in a transparent state was determined. The measurements are converted values for a 10° field of view and a D65 light source.

[3] = for State of sample after the end of the measurement: FIG. 2, after adsorption and desorption measurement; for Deliquescence: conclusion from isotherm and appearance; for Appearance after storage: tubes tightly closed, stored 9 days at normal temperature after measurement
Procedure: For the measurement, MicrotracBEL (MicrotracBEL Corporation) BELSORP MAX III was used. As a pretreatment of samples, the samples were vacuum-dried at 105° C. until the leakage was 1 Pa/min or less.
The measurement conditions were set as follows. • At relative pressures (humidity levels) from 0.025 to 0.3: measurements are taken at relative pressure intervals of 0.025 • At relative pressures (humidity levels) beyond 0.3 to 0.95: measurements are taken at relative pressure intervals of 0.05
After reaching a relative pressure of 0.95: measurements are taken at equal relative pressure intervals until a relative pressure of 0.1 (For TSP, however, the relative pressure limit was set to approximately 0.5 because measurement accuracy is reduced due to a prolonged measurement time.)
The equilibration conditions were that at relative pressures of 0.9 or lower, pressure changes should be 0.3% or smaller variations over 300 sec, and that at relative pressures of 0.9 or higher, pressure changes should be 0.3 Pa, as a pressure value, or smaller variations over 300 sec.

[4] = after adsorption and desorption measurement
[5] = before adsorption and desorption measurement
[6] = 9 days after adsorption and desorption measurement

Compound: C[C@H](N)C(=O)O [Alanine]
pI [1]: 6 | pKa (—COOH group) [1]: 2.34

Compound: N=C(N)NCCC[C@H](N)C(=O)O [Arginine, arginine]
L* (D65) [2, 4]: 94.8 | a* (D65) [2, 4]: −0.2 | b* (D65) [2, 4]: 0.1 | L* (D65) [2, 5]: 99.0 | a* (D65) [2, 5]: −0.1 | b* (D65) [2, 5]: 0.4 | pI [1]: 10.76 | pKa (—COOH group) [1]: 2.17

Compound: NC(=O)C[C@H](N)C(=O)O [Asparagine]
pI [1]: 5.41 | pKa (—COOH group) [1]: 2.02

Compound: N[C@@H](CC(=O)O)C(=O)O [Aspartic acid]
pI [1]: 2.77

Compound: N[C@@H](CS)C(=O)O [Cysteine]
pI [1]: 5.07 | pKa (—NH3 group) [1]: 10.28

L* (D65) [2, 6]: 33.1 | a* (D65) [2, 6]: −0.3 | L* (D65) [2, 4]: 26.5 | a* (D65) [2, 4]: −0.3 | b* (D65) [2, 4]: −0.9 | L* (D65) [2, 5]: 87.1 | a* (D65) [2, 5]: −0.1 | Deliquescence [3]: have deliquescence | Appearance after storage [3]: maintained the degree of transparency
Compound: NCCCC(=O)O [GABA, γ-aminobutyric acid]
State of sample after the end of the measurement [3]: transitioned to a transparent liquid state | pI [1]: 7.3 | pKa (—COOH group) [1]: 4.23

L* (D65) [2, 6]: 53.6 | a* (D65) [2, 6]: −0.7
Compound: N[C@@H](CCC(=O)O)C(=O)O [Glutamic acid]
pI [1]: 3.22

Compound: NCC(=O)O [Glycine]
pI [1]: 5.97

Compound: N[C@@H](Cc1c[nH]cn1)C(=O)O [Histidine]
pI [1]: 7.59

Compound: O=C(O)[C@@H]1C[C@@H](O)CN1 [Hydroxyproline]
pKa (—COOH group) [1]: 1.82 | pKa (—NH3 group) [1]: 9.65

Compound: CC[C@H](C)[C@H](N)C(=O)O [Isoleucine]
pI [1]: 6.02 | pKa (—COOH group) [1]: 2.36

Compound: NCCCC[C@H](N)C(=O)O [Lysine]
pI [1]: 9.74 | pKa (—COOH group) [1]: 2.18

L* (D65) [2, 4]: 33.7 | a* (D65) [2, 4]: −0.1 | b* (D65) [2, 4]: −0.2 | L* (D65) [2, 5]: 84.8 | a* (D65) [2, 5]: −0.2 | b* (D65) [2, 5]: 1.1 | Deliquescence [3]: have deliquescence | Appearance after storage [3]: became a whitened film form
Compound: N[C@@H](CCC(=O)O)C(=O)[O-].[Na+] [MSG, Na glutamate]
State of sample after the end of the measurement [3]: transitioned to a transparent liquid state

Compound: CSCC[C@H](N)C(=O)O [Methionine]
pI [1]: 5.74 | pKa (—COOH group) [1]: 2.28 | pKa (—NH3 group) [1]: 9.21

Compound: N[C@@H](Cc1ccccc1)C(=O)O [Phenylalanine]
pI [1]: 5.48 | pKa (—COOH group) [1]: 1.83 | pKa (—NH3 group) [1]: 9.13

Compound: O=C(O)[C@@H]1CCCN1 [Proline]
pI [1]: 6.3

Compound: O=C1CC[C@@H](C(=O)O)N1 [Pyroglutamic acid]
pI [1]: 5.68

Compound: N[C@@H](CO)C(=O)O [Serine]
pI [1]: 5.68

Compound: O=P([O-])([O-])[O-].[Na+].[Na+].[Na+] [TSP, trisodium phosphate, reference compound]
L* (D65) [2, 4]: 92.4 | a* (D65) [2, 4]: −0.1 | b* (D65) [2, 4]: 0.1 | L* (D65) [2, 5]: 98.5 | a* (D65) [2, 5]: 0.0 | b* (D65) [2, 5]: 0.5

Compound: C[C@@H](O)[C@H](N)C(=O)O [Threonine]
pI [1]: 5.6 | pKa (—COOH group) [1]: 2.09

Compound: N[C@@H](Cc1c[nH]c2ccccc12)C(=O)O [Tryptophan]
pI [1]: 5.89 | pKa (—COOH group) [1]: 2.83

Compound: N[C@@H](Cc1ccc(O)cc1)C(=O)O [Tyrosine]
pI [1]: 5.66

Compound: CC(C)[C@H](N)C(=O)O [Valine]
pI [1]: 5.96 | pKa (—NH3 group) [1]: 9.62
